Laboratory results reported in patent US20250134867A1, “METHOD FOR MODULATING LIPID METABOLISM, AMELIORATING NON-ALCOHOLIC FATTY LIVER DISEASE AND METABOLIC SYNDROME BY USING 6-METHOXYBENZOXAZOLINONE” (Taichung District Agricultural Research and Extension …, priority 2023, published 2025).

Experiments:
[1] = tested on: HFD-induced obese C57BL/6J mice; test: Fat deposition (eWAT) and serum lipid levels in HFD-induced obese mice; format: in vivo; settings: 12 weeks oral; for HFD-induced increase in the mass of eWAT / serum LDL-C / serum HDL cholesterol (HDL-C) / serum total cholesterol (TC) / serum triglyceride (TG): HFD mice; for HFD-induced increase in the mass of eWAT: CX 10 and 30 mg/kg/day, EGCG 30 mg/kg/day; for serum LDL-C: calculated as (TC)-(HDL-C)-(TG/5); for serum HDL cholesterol (HDL-C) / serum total cholesterol (TC) / serum triglyceride (TG): vs HFD group; for adipocyte diameters: compared with the HFD group
Text: (§1) The animals used in the examples are described below. 5-week-old male C57BL/6J mice were purchased from The National Laboratory Animal Center, Taipei, Taiwan and were maintained in a temperature-controlled room on a 12-h light-dark cycle. They were housed with four per cage and had free access to food and drinking water. Mice fed with a standard diet and adapted to the environment for 1 week were subsequently divided randomly into five groups. The ND group (n=8) continued on the same diet, whereas the other four groups (n=8 per group) were switched to the HFD (494 kcal/100 g, 45% energy as fat; TestDiet Inc., USA). Among the four HFD groups, three groups started to receive CX at 10 mg/kg/day (CX10 group), CX at 30 mg/kg/day (CX30 group), and epigallocatechin gallate (EGCG) (Sigma, Inc., USA) at 30 mg/kg/day (EGCG30 group) by oral gavage. EGCG was suspended in 0.5% methylcellulose solution for oral administration. Food consumption and weight gain were measured daily and weekly, respectively. After 12 weeks, all mice were sacrificed. Serum samples, liver tissue, epididymis adipose tissue and feces were harvested for further analysis. The experimental protocol was approved by the Animal Research Committee of the National Yang Ming Chiao Tung University (IACUC no. 1091013), and all procedures followed The Guide for the Care and Use of Laboratory Animals (NIH publication, 85-23, revised 1996) and the guidelines of the Animal Welfare Act, Taiwan. The procedure regarding immunohistochemical tissue characterization is as follows. During dissection of the mice, epididymis adipose tissue and liver were isolated, weighed, and subsequently fixed in 10% paraformaldehyde in PBS. After overnight fixation, tissues were embedded in paraffin for hematoxylin and eosin (H&E) staining. All specimens were observed microscopically (Carl Zeiss Inc., Germany) at 200× magnification. […] The procedure regarding biochemical characterization is as follows. The serum triglyceride (TG), total cholesterol (TC), high-density lipoprotein-cholesterol (HDL-C), glutamic oxaloacetic transaminase (GOT), glutamic pyruvic transaminase (GPT), albumin (ALB), uric acid (UA), and creatinine (CRE) levels were measured using enzymatic assay kits with a FUJI DRI-CHEM analyzer (Fujifilm, Tokyo, Japan). The LDL-C level was calculated as [(TC)-(HDL-C)-(TG/5)].

[2] = tested on: HFD-induced obese C57BL/6J mice; test: Liver fat deposition and liver damage markers (NAFLD) in HFD-induced obese mice; format: in vivo; settings: for liver weight / ratio of liver weight and body weight / lipid accumulation in the liver tissue (H&E and Oil Red O staining) / hepatic cholesterol (TC) level / hepatic triglyceride (TG) level: HFD mice, 12 weeks oral; for liver weight: CX 10 and 30 mg/kg/day, EGCG 30 mg/kg/day; for ratio of liver weight and body weight: among all groups; for lipid accumulation in the liver tissue (H&E and Oil Red O staining): normal morphology of liver cells maintained; for hepatic cholesterol (TC) level / hepatic triglyceride (TG) level: vs HFD; for serum albumin (ALB) level: compared with ND group, HFD group significantly higher
Text: as §1, with “[(TC)-(HDL-C)-(TG/5)]. The procedure regarding triglyceride and cholesterol analysis of liver tissue is as follows. For triglyceride and cholesterol determinations, mouse liver tissues were extracted and analyzed using triglyceride and cholesterol quantitation assay kits (Abcam, UK), respectively, according to the manufacturer's instruction.” for “[(TC)-(HDL-C)-(TG/5)].”

[3] = CX at both supplementations (10 and 30 mg/kg/day), 12 weeks

`COc1ccc2[nH]c(=O)oc2c1` [CX, 6-methoxybenzoxazolinone] was tested, and the “HFD-induced increase in the mass of eWAT” value [1] was “ameliorated”, the “serum LDL-C” value [1] was “somewhat ameliorated” and the “serum HDL cholesterol (HDL-C)” value [1] was “did not differ significantly from the HFD group”. For the same compound, the “serum total cholesterol (TC)” value [1] was “significantly lower than the HFD group”, the “serum triglyceride (TG)” value [1] was “significantly lower than the HFD group” and the adipocyte diameters [1] was “lower cell diameters and smaller cell size”. The “serum GOT (HFD-induced high level)” value [2, 3] was “significantly prevented”, the “serum GPT (HFD-induced high level)” value [2, 3] was “significantly prevented” and the liver weight [2] was “significantly lower than HFD group”. For the same compound, the “ratio of liver weight and body weight” value [2] was “did not differ among all groups”, the “lipid accumulation in the liver tissue (H&E and Oil Red O staining)” value [2] was “greatly ameliorated” and the “hepatic cholesterol (TC) level” value [2] was “much lower”. For the same compound, the “hepatic triglyceride (TG) level” value [2] was “much lower” and the “serum albumin (ALB) level” value [2] was “no difference”.
For `O=C(O[C@@H]1Cc2c(O)cc(O)cc2O[C@@H]1c1cc(O)c(O)c(O)c1)c1cc(O)c(O)c(O)c1` [EGCG, epigallocatechin gallate, reference compound], the “HFD-induced increase in the mass of eWAT” value [1] was “ameliorated”, the “serum LDL-C” value [1] was “somewhat ameliorated” and the “serum HDL cholesterol (HDL-C)” value [1] was “did not differ significantly from the HFD group”. For the same compound, the “serum total cholesterol (TC)” value [1] was “significantly lower than the HFD group”, the “serum triglyceride (TG)” value [1] was “significantly lower than the HFD group” and the adipocyte diameters [1] was “lower cell diameters and smaller cell size”. For the same compound, the liver weight [2] was “significantly lower than HFD group”, the “ratio of liver weight and body weight” value [2] was “did not differ among all groups” and the “lipid accumulation in the liver tissue (H&E and Oil Red O staining)” value [2] was “greatly ameliorated”. For the same compound, the “hepatic cholesterol (TC) level” value [2] was “much lower”, the “hepatic triglyceride (TG) level” value [2] was “much lower” and the “serum albumin (ALB) level” value [2] was “no difference”.
